Reference: paper PMC9127750, “Structure-based design of CDC42 effector interaction inhibitors for the treatment of cancer” (Cell reports, 2022)

System: WM3248 melanoma cells, 486 antibodies
Experiment: Reverse phase protein arrays (RPPA);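 for RPPA AceCS1.R.V: ratio of treated to vehicle (0 µM) normalized linear protein signal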;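 for RPPA Akt1 pS473.R.V: ratio of treated to vehicle (0 µM) normalized linear protein signal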;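 for RPPA Akt1.R.V: ratio of treated to vehicle (0 µM) normalized linear protein signal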;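 for RPPA Ambra1 pS52.R.C: ratio of treated to vehicle (0 µM) normalized linear protein signal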;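 for RPPA Atg5.R.C: ratio of treated to vehicle (0 µM) normalized linear protein signal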;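 for RPPA Bim.R.V: ratio of treated to vehicle (0 µM) normalized linear protein signal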
Format: cell-based, Human
Settings: 10 uM, Average
Description: Pellets were snap frozen in liquid nitrogen and shipped to MD Anderson Cancer Center core RPPA facility for RPPA analysis (Table S5). Three biological replicates for each sample were generated.
Nomenclatures on the RPPA heatmaps: name_of_antibody.species_of_antibody.status_of_antibody. V - antibody validated; C - validation of antibody in progress; Q - antibody nonspecific; E – under evaluation; antibodies raised in M - mouse, G - goat, R - rabbit, or T - rat.

## CN(C)c1cccc(Nc2cc(-c3ccccc3)nc(C3CCNCC3)n2)c1 [ARN22089, N1,N1-dimethyl-N3-(6-phenyl-2-(piperidin-4-yl)pyrimidin-4-yl)benzene-1,3-diamine]
  RPPA ATM.R.V: 0.927
  RPPA ATM_pS1981.R.V: 1.057
  RPPA ATP5A.M.C: 0.974
  RPPA ATP5H.R.V: 1.098
  RPPA ATR.R.V: 1.026
  RPPA ATRX.R.C: 0.906
  RPPA ATR_pS428.R.C: 0.986
  RPPA AceCS1.R.V: 0.979
  RPPA Akt1.R.V: 0.907
  RPPA Akt1_pS473.R.V: 0.954
  RPPA Akt2.R.V: 0.941
  RPPA Akt2_pS474.R.C: 1.021
  RPPA Akt.R.V: 0.867
  RPPA Akt_pT308.R.V: 0.981
  RPPA Ambra1_pS52.R.C: 1.030
  RPPA Atg3.R.V: 0.962
  RPPA Atg4B.R.C: 0.898
  RPPA Atg5.R.C: 0.891
  RPPA Atg7.R.V: 0.851
  RPPA Aurora.A.R.C: 1.056
  RPPA Aurora.ABC_pT288_pT232_pT198.R.C: 1.162
  RPPA Axl.R.V: 0.783
  RPPA B7.H4.R.C: 0.993
  RPPA B.Raf.R.C: 0.898
  RPPA B.Raf_pS445.R.V: 0.944
  RPPA BAP1.M.V: 0.990
  RPPA BCL2A1.R.V: 1.335
  RPPA BMK1.Erk5_pT218_Y220.R.V: 0.987
  RPPA BRCA1.M.C: 1.014
  RPPA BRD4.R.V: 1.015
  RPPA Bax.R.V: 0.964
  RPPA Bcl2.R.C: 1.027
  RPPA Bcl.xL.R.V: 1.001
  RPPA BiP.GRP78.M.C: 1.017
  RPPA Bid.R.C: 0.983
  RPPA Bim.R.V: 0.937
  RPPA DNMT1.R.V: 1.022
  RPPA DRP1.R.V: 0.982
  RPPA DUSP4.R.V: 0.898
  RPPA DUSP6.R.C: 0.937
  RPPA Dvl3.R.V: 0.985
  RPPA E.Cadherin.R.V: 1.055
  RPPA EGFR.R.V: 0.930
  RPPA EGFR_pY1068.R.C: 1.016
  RPPA EGFR_pY1173.R.V: 0.991
  RPPA EMA.M.C: 1.130
  RPPA ENY2.M.C: 1.020
  RPPA ER.a.R.V: 0.940
  RPPA ER.a_pS118.R.V: 0.975
  RPPA ERCC5.R.C: 0.879
  RPPA EVI1.R.V: 1.063
  RPPA Elk1_pS383.R.C: 0.992
  RPPA Enolase.1.R.V: 0.999
  RPPA EphA2.R.V: 1.002
  RPPA EphA2_pS897.R.C: 1.008
  RPPA EphA2_pY588.R.C: 0.983
  RPPA Erk5.R.V: 0.909
  RPPA FABP5.R.C: 1.006
  RPPA FAK.R.C: 0.977
  RPPA FAK_pY397.R.V: 1.056
  RPPA FANCD2.R.V: 1.010
  RPPA FASN.R.V: 0.855
  RPPA FGF.basic.R.C: 0.941
  RPPA FN14.R.C: 1.032
  RPPA FOXM1.R.V: 1.022
  RPPA FOXO3.R.V: 1.030
  RPPA FRS2.alpha_pY196.R.V: 1.286
  RPPA FTO.R.V: 1.004
  RPPA Fibronectin.R.V: 0.843
  RPPA FoxO3a_pS318_S321.R.C: 1.028
  RPPA G6PD.R.V: 1.065
  RPPA GATA3.M.V: 1.016
  RPPA GATA6.R.V: 1.046
  RPPA GCLC.R.C: 0.968
  RPPA GCLM.R.V: 1.026
  RPPA GCN5L2.R.V: 0.929
  RPPA GGPS1.M.V: 1.006
  RPPA GRB2.R.V: 0.910
  RPPA GRB7.R.V: 0.970
  RPPA GSK.3B.R.C: 0.917
  RPPA Gab2.R.V: 0.984
  RPPA Gli1.R.C: 1.007
  RPPA Gli3.R.C: 0.971
  RPPA Glucocorticoid.Receptor.R.V: 1.081
  RPPA Glutamate.D1.2.R.V: 1.054
  RPPA Glutaminase.R.C: 0.935
  RPPA Granzyme.B.R.V: 0.974
  RPPA Grp75.R.C: 1.080
  RPPA Gys.R.V: 0.978
  RPPA Gys_pS641.R.V: 1.007
  RPPA H2AX_pS139.R.C: 0.966
  RPPA HER2.M.V: 1.022
  RPPA HER3.R.V: 0.985
  RPPA HER3_pY1289.R.C: 0.975
  RPPA HES1.R.V: 0.990
  RPPA Heregulin.R.V: 0.902
  RPPA X4E.BP1.R.V: 0.842
  RPPA X4E.BP1_pS65.R.V: 1.009
  RPPA X4E.BP1_pT37_T46.R.V: 1.014
  RPPA X14.3.3.zeta.R.V: 1.029
  RPPA X14.3.3εM.C: 1.000
  RPPA X53BP1.R.V: 0.942
  RPPA b.Actin.R.C: 1.019
  RPPA b.Catenin_pT41_S45.R.V: 1.005
  RPPA c.Abl.R.V: 1.077
  RPPA c.Abl_pY412.R.C: 0.962
  RPPA c.IAP2.R.C: 1.022
  RPPA eIF4E.R.V: 0.979
  RPPA eIF4E_pS209.R.V: 1.021
  RPPA eIF4G.R.C: 0.929
  RPPA level HLA.DQA1.R.V: 1.033
  RPPA level HLA.DR.DP.DQ.DX.R.C: 0.982
  RPPA level HMHA1.R.V: 0.975
  RPPA level HSP27.M.C: 1.029
  RPPA level HSP27_pS82.R.V: 0.988
  RPPA level HSP70.R.C: 0.942
  RPPA level Hexokinase.II.R.V: 0.989
  RPPA level Hif.1αR.C: 0.977
  RPPA level Histone.H3.R.V: 0.887
  RPPA level IDO.R.C: 1.004
  RPPA level IGF1R_pY1135_Y1136.R.V: 0.943
  RPPA level IGFBP2.R.V: 0.781
  RPPA level IGFBP3.M.V: 0.976
  RPPA level IGFRb.R.C: 0.929
  RPPA level IL.6.R.C: 0.956
  RPPA level IMP3.R.C: 1.001
  RPPA level IR.b.R.C: 1.049
  RPPA level IRF.1.R.V: 0.861
  RPPA level IRS1.R.V: 0.974
  RPPA level IRS2.R.C: 0.998
  RPPA level JAB1.M.C: 1.013
  RPPA level JNK2.R.V: 1.853
  RPPA level JNK_pT183_Y185.R.C: 0.981
  RPPA level Jagged1.R.V: 0.989
  RPPA level Jak2.R.V: 0.961
  RPPA level KAP1.R.V: 0.913
  RPPA level KEAP1.R.V: 0.975
  RPPA level LC3A.B.R.C: 0.954
  RPPA level LCN2.R.V: 1.252
  RPPA level LDHA.R.C: 1.005
  RPPA level LRP6_pS1490.R.V: 0.929
  RPPA level Lck.R.V: 0.974
  RPPA level MACC1.R.V: 1.049
  RPPA level MAPK_pT202_Y204.R.C: 0.956
  RPPA level MCT4.R.V: 0.820
  RPPA level MDM2_pS166.R.V: 1.004
  RPPA level MEK1.R.V: 1.435
  RPPA level MEK1_pS217_S221.R.V: 0.992
  RPPA level MEK2.R.V: 0.978
  RPPA level MERIT40.R.C: 0.950
  RPPA level MERIT40_pS29.R.V: 1.020
  RPPA level METTL3.R.V: 1.051
  RPPA level MIF.R.C: 1.063
  RPPA level MIG6.R.V: 1.022
  RPPA level MLH1.M.V: 0.972
  RPPA level MLKL.R.V: 0.916
  RPPA level MMP2.R.V: 0.984
  RPPA level MMP14.R.V: 1.009
  RPPA level MRAP.R.C: 1.048
  RPPA level MSH2.R.C: 1.016
  RPPA level MSH6.R.C: 0.997
  RPPA level MSI2.R.C: 0.997
